Test results reported in US20240190851A1, “FURAN FUSED RING-SUBSTITUTED GLUTARIMIDE COMPOUND” (MEDSHINE DISCOVERY INC., priority 2021, published 2024).
pIC50: −log10 of the molar value. Where a name gives a salt, the structure may show the parent alone.

Assays:
[1] = system: human prostate cancer LNCaP cells; test: Antiproliferative effect in LNCaP cells (CellTiter-Glo, 6 days); assay type: cell-based; settings: 144 h
Procedure: In this experiment, the inhibitory effect of the test compound on cell proliferation in human prostate cancer LNCaP cells was detected.
The tumor cell lines were cultured in a 37° C., 5% CO2 incubator under the above culture conditions. Regular passage, and cells in logarithmic growth phase were taken for plating.
2. Cell Plating • (1) Cells were stained with trypan blue and viable cells were counted; • (2) the cell concentration was adjusted to an appropriate concentration;
• (3) 90 μL of cell suspension per well was added to the culture plate as shown in the table above, and cell-free culture medium was added to the blank control well; • (4) the culture plate was cultured overnight in a 37° C., 5% CO2 incubator with 100% relative humidity.
Preparation of stock solution storage plate with 400 times the initial concentration of the compound: The compound was serially diluted with DMSO from the highest concentration to the lowest concentration. The solution was prepared as needed each time.
Preparation of Working Solution with 10 Times the Initial Concentration of Compounds and Cell Treatment with Compounds • (1) To a V-bottom 96-well plate was added 78 μL of cell culture medium, and 2 μL of compound was pipetted from a stock solution storage plate with 400 times the initial concentration of the compound and added to the cell culture medium of the 96-well plate. To vehicle control and blank control was added 2 μL of DMSO. After the compound or DMSO was added, blowing with a pipette and mixing well were carried out. • (2) Administration: 10 μL of a working solution with 10 times the initial concentration of the compound was added to the cell culture plate. To vehicle control and blank control was added 10 μL of DMSO-cell culture medium mixture. • (3) The 96-well plate was returned to the incubator and cultured for 6 days.
The following steps were performed according to the instructions of Promega CellTiter-Glo luminescent cell viability assay kit (Promega-G7573). • (1) CellTiter-Glo buffer was melted and brought to room temperature; • (2) CellTiter-Glo substrate was brought to room temperature; • (3) CellTiter-Glo working solution was prepared by adding 100 mL of CellTiter-Glo buffer to a vial of CellTiter-Glo substrate to dissolve the substrate; • (4) the mixture was slowly vortexed and shaken to be fully dissolved; • (5) the cell culture plate was taken out and left for 30 minutes to equilibrate to room temperature; • (6) 50 μL of CellTiter-Glo working solution was added per well (equal to half the volume of cell culture medium per well). The cell plate was wrapped in aluminum foil to be protected from light; • (7) the culture plate was shaken on an orbital shaker for 2 minutes to induce cell lysis; (8) the culture plate was left at room temperature for 10 minutes to stabilize the luminescent signal; • (9) the luminescent signal was detected on a 2104 EnVision plate reader.
The inhibition rate (IR) of the test compound was calculated using the following formula: IR (%)=(RLU vehicle control−RLU compound)/(RLU vehicle control−RLU blank control)×100%. The inhibition rates of compounds at different concentrations were calculated in Excel, and then GraphPad Prism software was used to plot inhibition curves and calculate relevant parameters, including minimum inhibition rate, maximum inhibition rate, and ICSO.

[2] = system: human prostate cancer LNCaP xenograft tumor; test: In vivo pharmacodynamic study, LNCaP subcutaneous xenograft tumor CB-17 SCID model; parameters: species or system CB-17 SCID mice; settings: WX002 30 mg/kg (D0-D3), 50 mg/kg (D4-D21) p.o. BID
Procedure: Human prostate cancer LNCaP cells (ECACC-89110211) were cultured in vitro in a monolayer under the culture conditions of RPMI-1640 medium with 10% fetal bovine serum, […], and 100 μg/mL streptomycin, and cultured in a 37° C., 5% CO2 incubator.
Routine digestion with trypsin-EDTA was performed twice a week for passaging. When the cell saturation density was 80% to 90% and the number of cells reached the required level, the cells were collected, counted, and inoculated.
CB-17 SCID mice, 6 to 8 weeks old, male, weighing 18 to 22 g.
0.2 mL (1×10^7) of LNCaP cells (with matrix gel, volume ratio of 1:1) were subcutaneously inoculated on the right back of each mouse. The mice were subjected to surgical castration when the average tumor volume reached approximately 80 mm^3, and grouping and administration were initiated when the average tumor volume reached 166 mm^3.
Tumor diameters were measured twice a week with a vernier caliper. The formula for calculating tumor volume was: V=0.5a×b^2, wherein a and b represented the long and short diameters of the tumor, respectively.
The antitumor efficacy of compounds was evaluated by TGI (%). TGI (%) reflected the tumor growth inhibition rate. TGI (0%)=[(1−(average tumor volume at the end of administration in a treatment group−average tumor volume at the beginning of administration in this treatment group))/(average tumor volume at the end of treatment in the vehicle control group−average tumor volume at the beginning of treatment in the vehicle control group)]×100%.

Compound	pIC50 [1]	Tumor volume (Day 0) ([2]; Day 0, start of administration)	TGI (Day 21) ([2]; Day 21)	Tumor volume (Day 21) ([2]; Day 21)
N#Cc1ccc(O[C@H]2CC[C@H](NC(=O)c3ccc(N4CCC(CN5CCN(c6cccc7c6ccc6occ(C8CCC(=O)NC8=O)c67)CC5)CC4)nn3)CC2)cc1Cl (some centres unmarked) [Hydrochloride of WX015]	7.35			
CC1(C)C(=O)N(c2ccc(C#N)c(C(F)(F)F)c2)C(=S)N1c1ccc(OCCN2CCN(CC(=O)Nc3ccc4c(C5CCC(=O)NC5=O)coc4c3)CC2)c(F)c1 (centres unmarked) [WX002]	7.34	166 ± 18 mm^3	89.1%	219 ± 39 mm^3
